Experimental data from the NIST ThermoML archive (doi:10.1016/j.jct.2006.10.012).

Tests used:
[1] = Molar enthalpy of transition or fusion; details: Crystal; Adiabatic calorimetry

Cc1ccc2nc(C)ccc2c1 [2,6-dimethylquinoline]
Details | Molar enthalpy of transition or fusion [kcal/mol]
[1] | 4.88

Liquid
Details | vapor or sublimation pressure [kPa]
336.99 K, Inclined piston gauge | 0.0375
339.98 K, Inclined piston gauge | 0.0461
349.98 K, Inclined piston gauge | 0.0877
359.98 K, Inclined piston gauge | 0.1589
369.98 K, Inclined piston gauge | 0.2786
379.97 K, Inclined piston gauge | 0.4711
389.97 K, Inclined piston gauge | 0.7716
399.97 K, Inclined piston gauge | 1.227
404.97 K, Inclined piston gauge | 1.532
409.97 K, Inclined piston gauge | 1.899
411.21 K, Twin ebulliometer | 2
414.96 K, Inclined piston gauge | 2.34
428.45 K, Twin ebulliometer | 3.987
436.24 K, Twin ebulliometer | 5.329
447.73 K, Twin ebulliometer | 7.992
456.33 K, Twin ebulliometer | 10.65
463.33 K, Twin ebulliometer | 13.33
470.57 K, Twin ebulliometer | 16.66
476.57 K, Twin ebulliometer | 19.93
484.49 K, Twin ebulliometer | 25.02
492.47 K, Twin ebulliometer | 31.19
500.45 K, Twin ebulliometer | 38.56
508.5 K, Twin ebulliometer | 47.36
516.61 K, Twin ebulliometer | 57.81
524.76 K, Twin ebulliometer | 70.1
532.96 K, Twin ebulliometer | 84.5
541.22 K, Twin ebulliometer | 101.3
549.51 K, Twin ebulliometer | 120.76
557.86 K, Twin ebulliometer | 143.19
566.25 K, Twin ebulliometer | 168.98
574.7 K, Twin ebulliometer | 198.44
583.18 K, Twin ebulliometer | 231.96
591.71 K, Twin ebulliometer | 269.97

Details | Critical temperature [K] | Triple point temperature [K] | mass density [kg/m3]
348.13 K, Liquid | – | – | 995.1
373.12 K, Liquid | – | – | 975.8
398.12 K, Liquid | – | – | 956.9
423.12 K, Liquid | – | – | 938.7
448.11 K, Liquid | – | – | 914.4
473.11 K, Liquid | – | – | 894
498.11 K, Liquid | – | – | 872.2
523.11 K, Liquid | – | – | 849.2
Crystal, Adiabatic calorimetry | – | 330.84 | –
Liquid, DTA | 786 | – | –
